Measured values as given in US10292981B2, “Oxazoline and isoxazoline derivatives as CRAC modulators” (LUPIN LIMITED, priority 2010, dated 2019).

Test system: IL-2 secretion, Jurkat T cells
Test: Inhibition of IL-2 secretion (PHA-stimulated Jurkat T cells, ELISA)
Assay type: cell-based
Conditions: Homo sapiens; Jurkat T cells stimulated with PHA, 20 to 24 hours
Procedure: The CRAC channel modulatory activity of the compounds were thus evaluated by measuring the secretion of IL-2 by antigen stimulated T-cells in vitro. Alternatively, such activity can also be evaluated by assay methods known to one skilled in the art.
Inhibition of IL-2 secretion: Jurkat T cells were seeded at a density of 0.5 to 1 million cells per well in RPMI medium. Test compounds from this invention were added to the cells at different concentrations. This was followed by the addition of PHA, a T cell mitogen after 10 minutes.
The cells were then incubated for 20 to 24 hours in a CO2 incubator at 37° C. After incubation with the compounds, cells were centrifuged, collected the supernatant and processed for ELISA to quantitate the amount of IL-2 secreted. A commercial ELISA kit (R&D Systems, Inc. Minneapolis, Minn., USA) was used to estimate the IL-2 concentrations. Amount of IL-2 secreted by cells stimulated with PHA was considered as a 100% maximal signal and the decrease in amount of IL-2 secreted by cells treated with the test compounds was expressed as percent inhibition of the maximal signal. The dose response data was analyzed using 4-parametric sigmoidal dose response (variable slope) curve-fit.

| SMILES | IC50 [nM] |
| --- | --- |
| CCc1ccc(-c2nn(C)c(=O)o2)cc1-c1ccc(C(=O)Nc2c(F)cccc2F)s1 [Example 171, N-(2,6-Difluorophenyl)-5-(2-ethyl-5-(4-methyl-5-oxo-4,5-dihydro-1,3,4-oxadiazol-2-yl)phenyl)thiophene-2-carboxamide] | < 100 |
| Cc1ccc(C2=NOC(C)(C)C2=O)cc1-c1cnc(NC(=O)c2ccc(F)cc2)cn1 [Example 69, N-(5-(5-(5,5-Dimethyl-4-oxo-4,5-dihydroisoxazol-3-yl)-2-methylphenyl)pyrazine-2-yl)-4-fluorobenzamide] | > 1000 |
| COc1ccc(C2=NOC(C)(C)C2=O)cc1-c1ccc(NC(=O)c2c(F)cccc2F)nc1 [Example 17, N-(5-(5-(5,5-dimethyl-4-oxo-4,5-dihydroisoxazol-3-yl)-2-methoxyphenyl)pyridin-2-yl)-2,6-difluorobenzamide] | > 1000 |
| Cc1ccc(C2=NOC(C)(C)C2=O)cc1-c1cnc(NC(=O)c2c(F)cncc2F)cn1 [Example 114, N-(5-(5-(5,5-dimethyl-4-oxo-4,5-dihydroisoxazol-3-yl)-2-methylphenyl)pyrazin-2-yl)-3,5-difluoroisonicotinamide] | < 100 |
| COc1ccc(-c2nn(C)c(=O)o2)cc1-c1ccc(NC(=O)c2c(F)cccc2F)cc1 [Example 40, 2,6-Difluoro-N-(2′-methoxy-5′-(4-methyl-5-oxo-4,5-dihydro-1,3,4-oxadiazol-2-yl)[1,1′-biphenyl]-4-yl)benzamide] | < 100 |
| Cc1ccc(-c2nn(C)c(=O)o2)cc1-c1cnc(NC(=O)c2c(F)cccc2F)cn1 [Example 87, 2,6-Difluoro-N-(5-(2-methyl-5-(4-methyl-5-oxo-4,5-dihydro-1,3,4-oxadiazol-2-yl)phenyl)pyrazin-2-yl)benzamide] | < 100 |
| Cc1ccc(C2=NOC(C)(C)C2=O)cc1-c1cnc(NC(=O)c2ccncc2F)cn1 [Example 107, N-(5-(5-(5,5-dimethyl-4-oxo-4,5-dihydroisoxazol-3-yl)-2-methylphenyl)pyrazin-2-yl)-3-fluoroisonicotinamide] | 100 to 1000 |
| CCc1ccc(C2=NOC(C)(C)C2=O)cc1-c1ccc(NC(=O)c2c(F)cccc2F)cn1 [Example 7, N-(6-(5-(5,5-dimethyl-4-oxo-4,5-dihydroisoxazol-3-yl)-2-ethylphenyl)pyridin-3-yl)-2,6-difluorobenzamide] | 100 to 1000 |
| Cc1ccc(C2=NOC(C)(C)C2=O)cc1-c1cnc(NC(=O)c2c(F)cccc2Cl)cn1 [Example 80, 2-Chloro-N-(5-(5-(5,5-dimethyl-4-oxo-4,5-dihydroisoxazol-3-yl)-2-methylphenyl)pyrazin-2-yl)-6-fluorobenzamide] | < 100 |
| Cn1nc(-c2ccc(Cl)c(-c3ccc(NC(=O)c4c(F)cccc4F)cc3)c2)oc1=O [Example 46, N-(2′-Chloro-5′-(4-methyl-5-oxo-4,5-dihydro-1,3,4-oxadiazol-2-yl)-[1,1′-biphenyl]-4-yl)-2,6-difluorobenzamide] | < 100 |
| Cc1ccc(C2=NC(C)(C)CO2)cc1-c1ccc(NC(=O)c2c(F)cccc2F)cc1 [Example 61, N-(5′-(4,4-dimethyl-4,5-dihydrooxazol-2-yl)-2′-methyl-[1,1′-biphenyl]-4-yl)-2,6-difluorobenzamide] | 100 to 1000 |
| COc1ccc(-c2nn(C)c(=O)o2)cc1-c1cnc(NC(=O)c2c(F)cccc2F)cn1 [Example 93, 2,6-Difluoro-N-(5-(2-methoxy-5-(4-methyl-5-oxo-4,5-dihydro-1,3,4-oxadiazol-2-yl)phenyl)pyrazin-2-yl)benzamide] | < 100 |
| CC1(C)ON=C(c2ccc(Cl)c(-c3ccc(NC(=O)c4c(F)cccc4F)cc3)c2)C1=O [Example 11, N-(2′-chloro-5′-(5,5-dimethyl-4-oxo-4,5-dihydroisoxazol-3-yl)-[1,1′-biphenyl]-4-yl)-2,6-difluorobenzamide] | 100 to 1000 |
| CCc1ccc(C2=NOC(C)(C)C2=O)cc1-c1ccc(C(=O)Nc2c(F)cccc2F)s1 [Example 157, N-(2,6-Difluorophenyl)-5-(5-(5,5-dimethyl-4-oxo-4,5-dihydroisoxazol-3-yl)-2-ethyl-phenyl)thiophene-2-carboxamide] | < 100 |
| CC(C)Oc1ccc(C2=NOC(C)(C)C2=O)cc1-c1cnc(NC(=O)c2c(F)cccc2F)cn1 [Example 126, N-(5-(5-(5,5-dimethyl-4-oxo-4,5-dihydroisoxazol-3-yl)-2-isopropoxy-phenyl)pyrazin-2-yl)-2,6-difluorobenzamide] | 100 to 1000 |
| Cc1ccc(C2=NOC(C)(C)C2=O)cc1-c1ccc(NC(=O)c2c(F)cccc2F)nc1 [Example 4, N-(5-(5-(5,5-Dimethyl-4-oxo-4,5-dihydroisoxazol-3-yl)-2-methylphenyl)pyridin-2-yl)-2,6-difluorobenzamide] | 100 to 1000 |

| SMILES | IC50 [nM] |
| --- | --- |
| CC(C)c1ccc(C2=NOC(C)(C)C2=O)cc1-c1cnc(NC(=O)c2c(F)cccc2F)cn1 [Example 8, N-(5-(5-(5,5-dimethyl-4-oxo-4,5-dihydroisoxazol-3-yl)-2-isopropylphenyl)pyrazin-2-yl)-2,6-difluorobenzamide] | 100 to 1000 |
| Cc1ccc(C2=NOC3(CCCCC3)C2=O)cc1-c1ccc(NC(=O)c2c(F)cccc2F)cc1 [Example 58, 2,6-Difluoro-N-(2′-methyl-5′-(4-oxo-1-oxa-2-azaspiro[4.5]dec-2-en-3-yl)-[1,1′-biphenyl]-4-yl)benzamide] | 100 to 1000 |
| COc1c(C2=NOC(C)(C)C2=O)cccc1-c1ccc(NC(=O)c2c(F)cccc2F)cc1 [Example 31, N-(3′-(5,5-Dimethyl-4-oxo-4,5-dihydroisoxazol-3-yl)-2′-methoxy-[1,1′-bipheny;]-4-yl)-2,6-difluorobenzamide] | 100 to 1000 |
| Cc1ccc(C2=NOC(C)(C)C2=O)cc1-c1cnc(NC(=O)c2ccccc2Cl)cn1 [Example 78, 2-Chloro-N-(5-(5-(5,5-dimethyl-4-oxo-4,5-dihydroisoxazol-3-yl)-2-methylphenyl)pyrazin-2-yl)benzamide] | 100 to 1000 |
| CN(C)c1ccc(C2=NOC(C)(C)C2=O)cc1-c1ccc(NC(=O)c2c(F)cccc2F)cc1 [Example 136, N-(5′-(5,5-Dimethyl-4-oxo-4,5-dihydroisoxazol-3-yl)-2′-(dimethylamino)-[1,1′-biphenyl]-4-yl)-2,6-difluorobenzamide] | 100 to 1000 |
| CC(=O)Nc1ccc(C2=NOC(C)(C)C2=O)cc1-c1ccc(NC(=O)c2c(F)cccc2F)cc1 [Example 19, N-(2′-acetamido-5′-(5,5-dimethyl-4-oxo-4,5-dihydroisoxazol-3-yl)-[1,1′-biphenyl]-4-yl)-2,6-difluorobenzamide] | < 100 |
| Cc1ccc(C2=NOC(C)(C)C2=O)cc1-c1cnc(NC(=O)c2c(Cl)cncc2Cl)cn1 [Example 103, 3,5-Dichloro-N-(5-(5-(5,5-dimethyl-4-oxo-4,5-dihydroisoxazol-3-yl)-2-methylphenyl)pyrazin-2-yl)isonicotinamide] | 100 to 1000 |
| COC1C(c2ccc(C)c(-c3cnc(NC(=O)c4c(F)cccc4F)cn3)c2)=NOC1(C)C (centres unmarked) [Example 23, 2,6-difluoro-N-(5-(5-(4-methoxy-5,5-dimethyl-4,5-dihydroisoxazol-3-yl)-2-methylphenyl)pyrazin-2-yl)benzamide] | 100 to 1000 |
| Cc1ccc(-c2nn(C)c(=O)o2)cc1-c1ccc(NC(=O)c2c(F)cccc2F)cc1 [Example 33, 2,6-Difluoro-N-(2′-methyl-5′-(4-methyl-5-oxo-4,5-dihydro-1,3,4-oxadiazol-2-yl)-[1,1′-biphenyl]-4-yl)benzamide] | < 100 |
| Cn1nc(-c2ccc(OC(F)F)c(-c3ccc(C(=O)Nc4c(F)cccc4F)s3)c2)oc1=O [Example 173, 5-(2-(Difluoromethoxy)-5-(4-methyl-5-oxo-4,5-dihydro-1,3,4-oxadiazol-2-yl)phenyl)-N-(2,6-difluorophenyl) thiophene-2-carboxamide] | < 100 |
| CC1(C)ON=C(c2ccc(C(C)(C)C)c(-c3ccc(NC(=O)c4c(F)cccc4F)cc3)c2)C1=O [Example 10, N-(2′-(tert-butyl)-5′-(5,5-dimethyl-4-oxo-4,5-dihydroisoxazol-3-yl)-[1,1′-biphenyl]-4-yl)-2,6-difluorobenzamide] | > 1000 |
| CCn1nc(-c2ccc(C)c(-c3ccc(NC(=O)c4c(F)cccc4F)cc3)c2)oc1=O [Example 34, N-(5′-(4-Ethyl-5-oxo-4,5-dihydro-1,3,4-oxadiazol-2-yl)-2′-methyl-[1,1′-biphenyl]-4-yl)-2,6-difluorobenzamide] | < 100 |
| COC1C(c2ccc(C)c(-c3ccc(NC(=O)c4c(F)cccc4F)cc3)c2)=NOC1(C)C (centres unmarked) [Example 24, 2,6-Difluoro-N-(5′-(4-methoxy-5,5-dimethyl-4,5-dihydroisoxazol-3-yl)-2′-methyl-[1,1′-biphenyl]-4-yl)benzamide] | 100 to 1000 |
| Cc1c(-c2cnc(NC(=O)C3CCc4ccccc4C3)cn2)cccc1-c1nn(C)c(=O)o1 (racemic) [Example 138, (R/S)-N-(5-(2-Methyl-3-(4-methyl-5-oxo-4,5-dihydro-1,3,4-oxadiazol-2-yl)phenyl)pyrazin-2-yl)-1,2,3,4-tetrahydronaphthalene-2-carboxamide] | 100 to 1000 |
| Cc1ccc(C2=NOC(C)(C)C2=O)cc1-c1cnc(C(=O)Nc2c(F)cccc2F)cn1 [Example 121, N-(2,6-Difluorophenyl)-5-(5-(5,5-dimethyl-4-oxo-4,5-dihydroisoxazol-3-yl)-2-methylphenyl)pyrazine-2-carboxamide] | 100 to 1000 |
| CCc1ccc(C2=NOC(C)(C)C2=O)cc1-c1ccc(C(=O)Nc2ccncc2C)s1 [Example 158, 5-(5-(5,5-Dimethyl-4-oxo-4,5-dihydroisoxazol-3-yl)-2-ethylphenyl)-N-(3-methylpyridin-4-yl)thiophene-2-carboxamide] | < 100 |
